Assay [1] addresses T1, MASP-2 (Homo sapiens, UniProt O00187). As to conditions: known from Presanis et al. Mol. Immunol. 2003; cited from earlier work.
Target sequence in this assay (O00187 16-686): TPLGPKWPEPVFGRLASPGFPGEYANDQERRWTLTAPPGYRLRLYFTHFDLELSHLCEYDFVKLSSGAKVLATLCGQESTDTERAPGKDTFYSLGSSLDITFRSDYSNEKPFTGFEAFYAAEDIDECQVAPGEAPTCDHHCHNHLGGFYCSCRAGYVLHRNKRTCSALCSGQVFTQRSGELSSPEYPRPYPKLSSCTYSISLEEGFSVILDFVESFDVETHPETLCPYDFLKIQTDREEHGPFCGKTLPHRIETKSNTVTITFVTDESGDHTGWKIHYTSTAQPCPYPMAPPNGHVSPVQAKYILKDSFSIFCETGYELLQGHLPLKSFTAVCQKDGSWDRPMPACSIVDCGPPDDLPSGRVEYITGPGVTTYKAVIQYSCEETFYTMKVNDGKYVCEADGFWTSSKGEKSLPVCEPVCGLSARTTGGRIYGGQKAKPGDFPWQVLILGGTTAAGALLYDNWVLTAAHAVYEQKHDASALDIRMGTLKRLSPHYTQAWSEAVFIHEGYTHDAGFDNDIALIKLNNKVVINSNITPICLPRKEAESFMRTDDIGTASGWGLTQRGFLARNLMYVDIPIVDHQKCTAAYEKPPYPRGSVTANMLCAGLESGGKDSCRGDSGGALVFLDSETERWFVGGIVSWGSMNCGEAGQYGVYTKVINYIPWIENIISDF
Another assay concerns MBL-MASP complex. The assay is described as follows: Effect of inhibitor on serum MASP activity (captured MBL-MASP complex, pro-urokinase detection). The assay is classed as biochemical. As to conditions: 0-1 μM BMpg vs DMSO control; human serum captured on mannan coated plate; wild-type pro-urokinase and pyro-Glu-Gly-Arg-pNA; 37° C., 2 h. On the procedure:
MBL-MASP complexes were captured on a mannan coated plate as described in example 4. After capture, buffer, pro-urokinase and peptide substrate and boroMpg (0-1 μM final concentration) in DMSO, or an equivalent amount of pure DMSO (control) were added and activity was measured. All details were as described in example 4. Activity was expressed as ΔA^405/h^2×1000.
A mannan coated plate was used to capture MBL-MASP complex from diluted human serum. After washing, 100 μl buffer containing 0-1 μM Z-D-Phe-Pro-methoxypropylboroglycine-pinanediolester (BMpg or boroMpg) or buffer containing an identical volume of DMSO (solvent of boroMpg), 15 μl (50 μg/ml) wild-type pro-urokinase and 10 μl (6 mM) pyro-Glu-Gly-Arg-pNA were added. The plate was incubated at 37° C. and colour formation was followed for 2 h with a plate reader at 405 nm. Activities were expressed as ΔA/h^2×1000. All details are as described in Example 4. The results summarized in FIG. 9 show no effect of BMpg on activity of the captured MBL-MASP complex.

Another assay has as its target T2, MASP-1 (Homo sapiens, UniProt P48740).
T2 sequence (P48740 20-699): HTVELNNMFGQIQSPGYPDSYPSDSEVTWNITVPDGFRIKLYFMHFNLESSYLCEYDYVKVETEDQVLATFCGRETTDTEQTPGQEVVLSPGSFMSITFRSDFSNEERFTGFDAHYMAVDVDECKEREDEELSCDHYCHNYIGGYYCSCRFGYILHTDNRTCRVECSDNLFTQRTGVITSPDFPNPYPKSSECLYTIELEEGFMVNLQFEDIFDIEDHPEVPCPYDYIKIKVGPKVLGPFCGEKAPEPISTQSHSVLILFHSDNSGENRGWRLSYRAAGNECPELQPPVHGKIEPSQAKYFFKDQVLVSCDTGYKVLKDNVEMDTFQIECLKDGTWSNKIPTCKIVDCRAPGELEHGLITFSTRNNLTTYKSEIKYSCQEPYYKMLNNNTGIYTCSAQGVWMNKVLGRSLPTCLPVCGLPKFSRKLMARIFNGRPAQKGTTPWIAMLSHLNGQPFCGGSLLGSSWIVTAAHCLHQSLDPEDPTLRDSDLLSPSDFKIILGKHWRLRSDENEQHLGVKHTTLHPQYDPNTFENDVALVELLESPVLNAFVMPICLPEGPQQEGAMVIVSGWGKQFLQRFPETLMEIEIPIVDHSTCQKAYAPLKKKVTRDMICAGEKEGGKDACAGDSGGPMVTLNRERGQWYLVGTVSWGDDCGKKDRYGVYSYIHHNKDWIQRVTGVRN
The note with it: known from Presanis et al. Mol. Immunol. 2003; cited from earlier work.

Assay [2] addresses T1, MASP-2. Kind of assay: Activity of recombinant MASP-2 on novel substrates. The assay is classed as biochemical. Also noted: Recombinant MASP-2 (active form) at 600 μg/ml was serially diluted. The note with it: serially diluted recombinant MASP-2, 37° C., 2 h, A405. On the procedure:
Various dilutions of purified recombinant MASP-2 were tested for their response with wild-type pro-urokinase based detection and substrate 2 (table 1) based detection. MASP-2 was diluted in buffer to which wt pro-urokinase or pro-urokinase derivative 2 was added followed by pyro-Glu-Gly-Arg-pNA. The plate was incubated for 2h and A^405 was measured (see example 5 for details).
The activity of purified recombinant MASP-2 on wt pro-urokinase and substrate 2 was investigated. Recombinant MASP-2 (active form) at 600 μg/ml was serially diluted in 50 mM Tris HCl pH7.6, 1.5 mM NaCl, 0.5 mM CaCl2, 1 μM ZnCl2, 0.01% (v/v) BRIJ35™. To wells of a microtiter plate 100 μl of MASP-2 dilution, 10 μof wt pro-urokinase at approximately 50 μg/ml) or 10 μl substrate 2 (at approximately 75 μg/ml) were added, followed by 10 μl of peptide substrate pyro Glu-Gly-Arg-pNA (at 6 mM). The plate was incubated at 37° C. and absorbance change at 405 nm was followed in time for 2 h.
Target sequence in this assay (O00187 16-444 limits assumed): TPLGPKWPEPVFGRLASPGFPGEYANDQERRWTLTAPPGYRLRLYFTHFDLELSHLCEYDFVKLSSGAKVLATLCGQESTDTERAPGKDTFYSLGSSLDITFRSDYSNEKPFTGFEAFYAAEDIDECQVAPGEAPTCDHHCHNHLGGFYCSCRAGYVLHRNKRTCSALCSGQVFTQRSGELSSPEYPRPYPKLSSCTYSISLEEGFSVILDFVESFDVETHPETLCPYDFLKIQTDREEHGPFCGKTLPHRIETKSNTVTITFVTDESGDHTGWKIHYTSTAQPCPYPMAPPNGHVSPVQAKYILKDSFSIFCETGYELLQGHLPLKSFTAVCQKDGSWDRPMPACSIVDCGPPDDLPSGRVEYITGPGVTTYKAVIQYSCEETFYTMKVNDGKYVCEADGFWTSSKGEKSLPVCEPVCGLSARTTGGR
Target sequence in this assay (O00187 445-686 limits assumed): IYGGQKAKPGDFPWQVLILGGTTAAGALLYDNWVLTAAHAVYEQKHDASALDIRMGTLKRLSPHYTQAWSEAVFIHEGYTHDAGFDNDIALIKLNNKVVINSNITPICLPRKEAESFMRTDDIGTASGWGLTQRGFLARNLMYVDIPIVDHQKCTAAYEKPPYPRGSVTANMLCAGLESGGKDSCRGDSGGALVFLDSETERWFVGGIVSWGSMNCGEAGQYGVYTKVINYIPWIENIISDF

The test system of another assay is MBL-MASP complexes. Kind of assay: Determination of MBL-MASP complexes in serum with pro-urokinase substrates. The assay is classed as biochemical, human. As to conditions: serum diluted 10-320 fold, mannan coated plate. On the procedure: A mannan-coated microtiter plate was used to bind and immobilize MBL-MASP complexes from heterozygous MBL-deficient serum (A/B genotype), homozygous MBL-deficient serum (B/B genotype) and normal serum (A/A genotype) in various dilutions. After washing, wild-type pro-urokinase or substrate 2 and chromogenic peptide pyro-Glu-Gly-Arg-pNA were added. The absorbance change at 405 nm was followed in time. The slopes of A405 versus time-squared graphs were taken as a measure of activity.
Based on the results of example 2 an assay for MBL-MASP complexes in serum was developed. Three different sera were used, serum […] MBL deficiency, serum (B/B) with an homozygous MBL deficiency and a normal serum (A/A). A microtiter plate was coated with mannan, washed and blocked as described in example 2.
Serum samples were diluted 10-320 fold in GVB++buffer (see example 2) and 100 μl of these dilutions were pipetted into wells of the coated microtiter plate. […]
To all wells 100 μl of detection buffer, 10 μl of either wild-type pro-urokinase or pro-urokinase derivative 2 at 7.6 μg/ml and 10 μl of pyro-Glu-Gly-Arg-pNA at 6 mM were added (see example 2). The plate was shaken and A^405 was followed in time with a microtiter plate reader. The slopes of the graphs of A^405 versus time squared were calculated and used as a measure of activity.

As for `COCCC[C@@H](NC(=O)[C@@H]1CCCN1C(=O)[C@@H](Cc1ccccc1)NC(=O)OCc1ccccc1)B1OC2C[C@@H]3C[C@@H](C3(C)C)[C@]2(C)O1` (stereo partly drawn) [BMpg, Z-D-Phe-Pro-methoxypropylboroglycine-pinanediolester], at MASP-2 [1], the “inhibition of MASP-2” value is reported as “not MASP-2”. In the assay with MBL-MASP complex, the “effect on activity of the captured MBL-MASP complex (ΔA/h^2×1000)” value was “no effect”. Further, the “inhibition of MASP-1” value on MASP-1 was “inhibit MASP-1”.
On to “substrate 2: pro-urokinase mutant with activation site Asn-Leu-Thr-Arg-Ile-Val-Gly-Gly (SEQ ID NO:4) (NLTRIVGG; activation site)”, for which the “detection of MASP-2 activity” value in the assay with MASP-2 [2] is “can be detected”. Further, the “activity in normal (A/A) serum (slope of A405 versus time squared)” value in the assay on MBL-MASP complexes is recorded as “dose dependent activity”.
